Source: ChEMBL document CHEMBL3792297, “Studies on phenothiazines: New microtubule-interacting compounds with phenothiazine A-ring as potent antineoplastic agents” (Bioorg Med Chem, 2016)

Key:
SK-MEL-2 = experiment: Growth inhibition of human SK-MEL-2 cells at 10 uM after 48 hrs by SRB assay relative to control; type: functional; details: SK-MEL-2, 48 h, read-out: GI
[1] = Growth inhibition of human HOP92 cells at 10 uM after 48 hrs by SRB assay relative to control; type: functional; details: HOP-92, 48 h, read-out: GI
A549 = experiment: Growth inhibition of human A549 cells at 10 uM after 48 hrs by SRB assay relative to control; type: functional; details: A549, 48 h, read-out: GI
[2] = Growth inhibition of human UACC257 cells at 10 uM after 48 hrs by SRB assay relative to control; type: functional; details: UACC-257, 48 h, read-out: GI
SN12C = experiment: Growth inhibition of human SN12C cells at 10 uM after 48 hrs by SRB assay relative to control; type: functional; details: read-out: GI
[3] = Growth inhibition of human OVCAR5 cells at 10 uM after 48 hrs by SRB assay relative to control; type: functional; details: OVCAR-5, 48 h, read-out: GI
U-251 = experiment: Growth inhibition of human U251 cells at 10 uM after 48 hrs by SRB assay relative to control; type: functional; details: U-251, 48 h, read-out: GI
[4] = Growth inhibition of human TK10 cells at 10 uM after 48 hrs by SRB assay relative to control; type: functional; details: TK-10, 48 h, read-out: GI
NCI-H522 = experiment: Growth inhibition of human NCI-H522 cells at 10 uM after 48 hrs by SRB assay relative to control; type: functional; details: NCI-H522, 48 h, read-out: GI
[5] = Growth inhibition of human LOXIMVI cells at 10 uM after 48 hrs by SRB assay relative to control; type: functional; details: LOX IMVI, read-out: GI
HT-29 = experiment: Growth inhibition of human HT-29 cells at 10 uM after 48 hrs by SRB assay relative to control; type: functional; details: HT-29, 48 h, read-out: GI
[6] = Growth inhibition of human Caki1 cells at 10 uM after 48 hrs by SRB assay relative to control; type: functional; details: CAKI-1, 48 h, read-out: GI
M14 = experiment: Growth inhibition of human M14 cells at 10 uM after 48 hrs by SRB assay relative to control; type: functional; details: M14, 48 h, read-out: GI
MDA-MB-231 = experiment: Growth inhibition of human MDA-MB-231 cells at 10 uM after 48 hrs by SRB assay relative to control; type: functional; details: MDA-MB-231, 48 h, read-out: GI
[7] = Growth inhibition of human RXF393 cells at 10 uM after 48 hrs by SRB assay relative to control; type: functional; details: RXF 393, 48 h, read-out: GI
[8] = Growth inhibition of human RPMI8226 cells at 10 uM after 48 hrs by SRB assay relative to control; type: functional; details: RPMI-8226, 48 h, read-out: GI
ACHN = experiment: Growth inhibition of human ACHN cells at 10 uM after 48 hrs by SRB assay relative to control; type: functional; details: read-out: GI
T47D = experiment: Growth inhibition of human T47D cells at 10 uM after 48 hrs by SRB assay relative to control; type: functional; details: read-out: GI
NCI-H460 = experiment: Growth inhibition of human NCI-H460 cells at 10 uM after 48 hrs by SRB assay relative to control; type: functional; details: NCI-H460, 48 h, read-out: GI
[9] = Growth inhibition of human SNB19 cells at 10 uM after 48 hrs by SRB assay relative to control; type: functional; details: SNB-19, 48 h, read-out: GI
NCI-H322M = experiment: Growth inhibition of human NCI-H322M cells at 10 uM after 48 hrs by SRB assay relative to control; type: functional; details: read-out: GI
MDA-MB-468 = experiment: Growth inhibition of human MDA-MB-468 cells at 10 uM after 48 hrs by SRB assay relative to control; type: functional; details: MDA-MB-468, 48 h, read-out: GI
[10] = Growth inhibition of human HOP62 cells at 10 uM after 48 hrs by SRB assay relative to control; type: functional; details: HOP-62, 48 h, read-out: GI
[11] = Growth inhibition of human HCT116 cells at 10 uM after 48 hrs by SRB assay relative to control; type: functional; details: HCT-116, 48 h, read-out: GI
Ovis aries = organism: Ovis aries; experiment: Inhibition of sheep brain tubulin polymerization at 100 uM by DAPI staining-based fluorimetric method
786-0 = experiment: Growth inhibition of human 786-0 cells at 10 uM after 48 hrs by SRB assay relative to control; type: functional; details: 786-0, 48 h, read-out: GI
A498 = experiment: Growth inhibition of human A498 cells at 10 uM after 48 hrs by SRB assay relative to control; type: functional; details: A498, 48 h, read-out: GI
[12] = Growth inhibition of human SW620 cells at 10 uM after 48 hrs by SRB assay relative to control; type: functional; details: SW-620, 48 h, read-out: GI
MDA-MB-435 = experiment: Growth inhibition of human MDA-MB-435 cells at 10 uM after 48 hrs by SRB assay relative to control; type: functional; details: MDA-MB-435, 48 h, read-out: GI
SK-MEL-28 = experiment: Growth inhibition of human SK-MEL-28 cells at 10 uM after 48 hrs by SRB assay relative to control; type: functional; details: SK-MEL-28, 48 h, read-out: GI
[13] = Growth inhibition of human UO31 cells at 10 uM after 48 hrs by SRB assay relative to control; type: functional; details: UO-31, 48 h, read-out: GI
[14] = Growth inhibition of human DU145 cells at 10 uM after 48 hrs by SRB assay relative to control; type: functional; details: DU-145, 48 h, read-out: GI
[15] = Growth inhibition of human IGROV1 cells at 10 uM after 48 hrs by SRB assay relative to control; type: functional; details: IGROV-1, 48 h, read-out: GI
K562 = experiment: Growth inhibition of human K562 cells at 10 uM after 48 hrs by SRB assay relative to control; type: functional; details: K562, 48 h, read-out: GI
MCF7 = experiment: Growth inhibition of human MCF7 cells at 10 uM after 48 hrs by SRB assay relative to control; type: functional; details: MCF7, 48 h, read-out: GI
[16] = Growth inhibition of human COLO205 cells at 10 uM after 48 hrs by SRB assay relative to control; type: functional; details: COLO 205, 48 h, read-out: GI
Malme-3M = experiment: Growth inhibition of human MALME-3M cells at 10 uM after 48 hrs by SRB assay relative to control; type: functional; details: read-out: GI
[17] = Growth inhibition of human HCC2998 cells at 10 uM after 48 hrs by SRB assay relative to control; type: functional; details: HCC 2998, 48 h, read-out: GI
[18] = Growth inhibition of human HL-60(TB) cells at 10 uM after 48 hrs by SRB assay relative to control; type: functional; details: HL-60, 48 h, read-out: GI

Structure (SMILES)	inhibition of growth at 10 µM (SK-MEL-2) [%]	inhibition of growth at 10 µM [1] [%]	inhibition of growth at 10 µM (A549) [%]	inhibition of growth at 10 µM [2] [%]	inhibition of growth at 10 µM (SN12C) [%]	inhibition of growth at 10 µM [3] [%]	inhibition of growth at 10 µM (U-251) [%]	inhibition of growth at 10 µM [4] [%]	inhibition of growth at 10 µM (NCI-H522) [%]	inhibition of growth at 10 µM [5] [%]	inhibition of growth at 10 µM (HT-29) [%]	inhibition of growth at 10 µM [6] [%]	inhibition of growth at 10 µM (M14) [%]	inhibition of growth at 10 µM (MDA-MB-231) [%]	inhibition of growth at 10 µM [7] [%]	inhibition of growth at 10 µM [8] [%]	inhibition of growth at 10 µM (ACHN) [%]	inhibition of growth at 10 µM (T47D) [%]	inhibition of growth at 10 µM (NCI-H460) [%]	inhibition of growth at 10 µM [9] [%]	other results
O=C(c1ccc(F)cc1F)N1c2ccccc2Sc2ccccc21	19	39	48	44	9	21	66	23	41	74	68	51	35	38	35	47	20	35	80	37	inhibition of growth at 10 µM (NCI-H322M): 8%; inhibition of growth at 10 µM (MDA-MB-468): 64%; inhibition of growth at 10 µM [10]: 33%; inhibition of growth at 10 µM [11]: 73%; inhibition (Ovis aries): 25%; inhibition of growth at 10 µM (786-0): 26%; inhibition of growth at 10 µM (A498): 38%; inhibition of growth at 10 µM [12]: 66%; inhibition of growth at 10 µM (MDA-MB-435): 80%; inhibition of growth at 10 µM (SK-MEL-28): 41%; inhibition of growth at 10 µM [13]: 31%; inhibition of growth at 10 µM [14]: 20%; inhibition of growth at 10 µM [15]: 33%; inhibition of growth at 10 µM (K562): 82%; inhibition of growth at 10 µM (MCF7): 48%; inhibition of growth at 10 µM [16]: 56%; inhibition of growth at 10 µM (Malme-3M): 44%; inhibition of growth at 10 µM [17]: 47%; inhibition of growth at 10 µM [18]: 71%
COc1ccc(C(=O)N2c3ccccc3Sc3ccccc32)c(C(F)(F)F)c1	53	85	75	38	60	55	81	43	98	83	97	68	98	76	85	86	68	48	90	69	inhibition of growth at 10 µM (NCI-H322M): 47%; inhibition of growth at 10 µM (MDA-MB-468): 70%; inhibition of growth at 10 µM [10]: 57%; inhibition of growth at 10 µM [11]: 93%; inhibition (Ovis aries): 80%; inhibition of growth at 10 µM (786-0): 61%; inhibition of growth at 10 µM (A498): 91%; inhibition of growth at 10 µM [12]: 75%; inhibition of growth at 10 µM (MDA-MB-435): 100%; inhibition of growth at 10 µM (SK-MEL-28): 48%; inhibition of growth at 10 µM [13]: 60%; inhibition of growth at 10 µM [14]: 86%; inhibition of growth at 10 µM [15]: 62%; inhibition of growth at 10 µM (K562): 100%; inhibition of growth at 10 µM (MCF7): 83%; inhibition of growth at 10 µM [16]: 100%; inhibition of growth at 10 µM (Malme-3M): 40%; inhibition of growth at 10 µM [17]: 74%; inhibition of growth at 10 µM [18]: 98%
O=C(c1ccc(F)c(Cl)c1)N1c2ccccc2Sc2ccccc21	35	63	34	39	1	13	61	15	57	59	64	47	47	39	29	47	0	39	1	23	inhibition of growth at 10 µM (NCI-H322M): 0%; inhibition of growth at 10 µM (MDA-MB-468): 37%; inhibition of growth at 10 µM [10]: 23%; inhibition of growth at 10 µM [11]: 69%; inhibition (Ovis aries): 42%; inhibition of growth at 10 µM (786-0): 20%; inhibition of growth at 10 µM (A498): 38%; inhibition of growth at 10 µM [12]: 66%; inhibition of growth at 10 µM (MDA-MB-435): 92%; inhibition of growth at 10 µM (SK-MEL-28): 38%; inhibition of growth at 10 µM [13]: 27%; inhibition of growth at 10 µM [14]: 10%; inhibition of growth at 10 µM [15]: 29%; inhibition of growth at 10 µM (K562): 79%; inhibition of growth at 10 µM (MCF7): 49%; inhibition of growth at 10 µM [16]: 55%; inhibition of growth at 10 µM (Malme-3M): 36%; inhibition of growth at 10 µM [17]: 38%; inhibition of growth at 10 µM [18]: 69%
